For one data set, the target named is T1, Human HDAC5 (Homo sapiens, UniProt Q9UQL6).
T1 construct: full-length with an N-terminal GST tag, MW=150 kDa; GST tag (N); made in house; host or cells: baculovirus expression system
As to the kind of experiment: Biochemical HDAC enzymatic assay, HDAC5. To be noted: Table 2; incubation time 10 min. On the procedure: (§1) Incubation time for HDAC1/2 is 120 min, and 10 min for other HDACs.
Human HDAC5 (GenBank Accession No. NM_005474), full-length with an N-terminal GST tag, MW=150 kDa, was expressed in a baculovirus expression system.
(§2) • I. Compound handling: Testing compounds were dissolved in 100% DMSO to a specific concentration. The serial dilution was conducted by epMotion 5070 in DMSO. • II. HDAC reaction buffer: 50 mM Tris-HCl, pH8.0, 137 mM NaCl, 2.7 mM KCl, and 1 mM MgCl2, Added fresh: 1 mg/ml BSA, 1% DMSO. • III. […] Delivered 2× Substrate Mixture (Fluorogenic HDAC Substrate and co-factor ([…] of Nicotinamide adenine dinucleotide (NAD^+) in all Sirt assay) in all reaction wells to initiate the reaction. Spin and shake. • d. Incubated for 1-2 hr. at 30° C. with seal. • e. Added Developer with Trichostatin A (or TMP269 or NAD^+) to stop the reaction and to generate fluorescent color. • f. Fluorescence was read (excitatory, 360; emission, 460) using the EnVision Multilabel Plate Reader (Perkin Elmer) • g. Endpoint reading was taken for analysis after the development reaches plateau. • V. Data Analysis: The percentages of enzyme activity (relative to DMSO controls) and IC50 values were calculated using the GraphPad Prism 4 program based on a sigmoidal dose-response equation. […]

For another data set, the target named is T2, Human HDAC10 (Homo sapiens, UniProt Q969S8).
T2 construct: Human HDAC10 (a.a. 1-481); GST tag (N); His tag (C); made in house; host or cells: baculovirus expression system
T2 sequence (Q969S8 1-481): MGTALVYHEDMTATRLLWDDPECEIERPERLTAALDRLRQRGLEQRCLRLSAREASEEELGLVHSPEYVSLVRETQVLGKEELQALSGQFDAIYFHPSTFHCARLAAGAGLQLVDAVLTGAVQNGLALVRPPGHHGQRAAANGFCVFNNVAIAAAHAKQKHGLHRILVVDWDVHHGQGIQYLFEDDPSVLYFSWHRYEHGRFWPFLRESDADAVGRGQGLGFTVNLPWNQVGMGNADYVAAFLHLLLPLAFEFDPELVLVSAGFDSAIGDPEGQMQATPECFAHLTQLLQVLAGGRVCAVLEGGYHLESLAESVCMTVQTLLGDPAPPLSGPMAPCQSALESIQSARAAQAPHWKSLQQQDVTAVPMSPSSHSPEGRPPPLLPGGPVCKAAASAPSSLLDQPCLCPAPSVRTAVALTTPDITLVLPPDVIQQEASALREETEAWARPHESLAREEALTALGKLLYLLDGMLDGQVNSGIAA
The data set can be described thus: Biochemical HDAC enzymatic assay, HDAC10. To be noted: Table 2; incubation time 10 min. As for the experimental part:
as §1
Human HDAC10 (a.a. 1-481), GenBank Accession No. NM_032019 with a N-terminal GST tag and a C-terminal His tag, MW=78 kDa, was expressed in a baculovirus expression system.
as §2

The nature of data set [1]: Mouse plasma PK after oral administration. The class given is in vivo. As for the experimental part: (§3) In vivo PK (pharmacokinetics) studies were run at Scripps Florida DMPK Core facility. Mouse plasma PK data was obtained using Compound Example 4 (N-(2-amino-5-(thiophen-2-yl)phenyl)-6-(8-methyl-2-oxo-1-oxa-3,8-diazaspiro[4.5]decan-3-yl)nicotinamide)
(§4) Dose: 1 mg/kg intravenous (IV) and 7 mg/kg oral dosage (PO)
(§5) Formulation: 0.1 mg/mL IV and 1 mg/mL PO solution in 10/10/80 DMSO/Tween80/Water
(§6) Mice Info: Male C57 Bl/6J

Data set [2] is described as follows: Mouse plasma PK after IV administration. To be noted: for AUC(0-inf): read-out: AUCINF_obs (converted); for MRT inf: read-out: MRTINF_obs. The data set is classed as in vivo. On the procedure:
as §3, §4, §5, §6

Setting [3] is: mouse plasma, 7 mg/kg PO, Average.
[4] abbreviates: mouse plasma, 7 mg/kg PO, individual mice, 7 mg/kg.
Where [5] appears, read: 1 mg/kg IV, individual mice, 1 mg/kg.
Where [6] appears, read: male, C57 Bl/6J, mouse, plasma, iv, 1 mg/kg, 1 mg/kg IV, Average.
Setting [7] is: male, C57 Bl/6J, mouse, plasma, iv, 1 mg/kg, 1 mg/kg IV, individual mice.

In general, IC50 refers to the midpoint of a concentration-inhibition curve. Lower therefore signals greater potency. One may read the AUC as concentration integrated over time. One may read the AUC(0-t) as exposure summed from dosing to a finite time, without extrapolation to infinity. A higher AUC(0-t) goes with high exposure. The term Cmax denotes the highest concentration seen after dosing. In general, Tmax refers to the time at which the peak concentration occurs.

“And” between values parts separate entries of the source, which are not always exact repeats. Equal values may be shown once. Read-outs that look alike come from different tables or passages of the source.

T1 sequence (Q9UQL6 whole entry): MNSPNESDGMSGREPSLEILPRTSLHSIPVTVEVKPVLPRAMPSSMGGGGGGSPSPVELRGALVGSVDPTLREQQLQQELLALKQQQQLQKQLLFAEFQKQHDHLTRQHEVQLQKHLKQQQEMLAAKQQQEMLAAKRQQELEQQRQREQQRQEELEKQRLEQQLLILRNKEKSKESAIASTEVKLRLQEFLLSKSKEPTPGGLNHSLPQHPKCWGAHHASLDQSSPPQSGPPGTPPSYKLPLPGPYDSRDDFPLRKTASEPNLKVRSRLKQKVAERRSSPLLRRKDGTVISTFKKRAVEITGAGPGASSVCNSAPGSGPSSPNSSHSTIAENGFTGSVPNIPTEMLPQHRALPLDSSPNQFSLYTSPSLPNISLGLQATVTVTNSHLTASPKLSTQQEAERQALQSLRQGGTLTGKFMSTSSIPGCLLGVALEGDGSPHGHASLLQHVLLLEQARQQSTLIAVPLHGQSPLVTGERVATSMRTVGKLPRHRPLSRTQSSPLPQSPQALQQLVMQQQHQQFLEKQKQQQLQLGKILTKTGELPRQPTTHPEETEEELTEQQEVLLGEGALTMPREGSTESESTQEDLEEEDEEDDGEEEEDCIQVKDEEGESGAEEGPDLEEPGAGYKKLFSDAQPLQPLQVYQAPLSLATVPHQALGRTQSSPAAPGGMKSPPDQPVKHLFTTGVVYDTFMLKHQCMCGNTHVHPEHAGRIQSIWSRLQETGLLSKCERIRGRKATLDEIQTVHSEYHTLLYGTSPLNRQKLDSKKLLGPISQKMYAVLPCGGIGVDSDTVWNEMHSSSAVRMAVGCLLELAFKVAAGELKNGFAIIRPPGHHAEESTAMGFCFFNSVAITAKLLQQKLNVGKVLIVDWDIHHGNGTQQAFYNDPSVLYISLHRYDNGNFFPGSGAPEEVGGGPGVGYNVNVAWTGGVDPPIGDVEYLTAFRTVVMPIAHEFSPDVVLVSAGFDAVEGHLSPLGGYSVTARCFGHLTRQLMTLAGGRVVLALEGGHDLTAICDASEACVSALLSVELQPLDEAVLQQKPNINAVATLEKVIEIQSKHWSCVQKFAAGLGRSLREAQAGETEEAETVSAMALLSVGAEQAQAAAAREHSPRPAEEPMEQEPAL

For `O=C(NO)c1ccc(CN2C(=O)c3ccccc3C23CCN(C2CC2)CC3)cc1` [Compound Example 12, 4-((1′-cyclopropyl-3-oxospiro[isoindoline-1,4′-piperidin]-2-yl)methyl)-N-hydroxybenzamide], the half-inhibitory concentration (IC50) at Human HDAC5 and on Human HDAC10 was over 10 µM throughout.

On to `CN1CCC2(CC1)CN(c1ccc(C(=O)Nc3cc(-c4cccs4)ccc3N)cn1)C(=O)O2` [Example 4, N-(2-amino-5-(thiophen-2-yl)phenyl)-6-(8-methyl-2-oxo-1-oxa-3,8-diazaspiro[4.5]decan-3-yl)nicotinamide], for which the AUC in data set [1] (male, C57 Bl/6J, 7 mg/kg, mouse plasma, oral dosing, read-out: AUC (area under curve)) was about 16 µM·h; in data set [2] (male, C57 Bl/6J, 1 mg/kg, IV administration), about 7.3 µM·h. Besides, the AUC(0-t) in data set [1] (male, C57 Bl/6J, mouse, plasma, po, 7 mg/kg, mouse plasma, 7 mg/kg PO, Average) was 7380 ng·h/mL and 15.9 µM·h; in data set [2] (setting [6]), 3380 ng·h/mL and 7.3 µM·h; in data set [2] (setting [7]), 3540 ng·h/mL and 7.64 µM·h. The AUC(0-inf) was 7860 ng·h/mL in data set [1] (male, C57 Bl/6J, mouse, plasma, po, 7 mg/kg, mouse plasma, 7 mg/kg PO, Average, read-out: AUCINF_obs (converted)); 3420 ng·h/mL in data set [2] (setting [6]); 3550 ng·h/mL in data set [2] (setting [7]). Also, the highest concentration (Cmax) was 2490 ng/mL and 5.39 µM in data set [1] (male, C57 Bl/6J, mouse, plasma, po, 7 mg/kg, mouse plasma, 7 mg/kg PO, Average, read-out: Cmax); 3200 ng/mL and 6.91 µM in data set [1] (male, C57 Bl/6J, mouse, plasma, po, 7 mg/kg, mouse plasma, 7 mg/kg PO, individual mice, read-out: Cmax); 1930 ng/mL and 2350 ng/mL in data set [1] (setting [4]); 4.17 µM and 5.08 µM in data set [1] (mouse plasma, 7 mg/kg PO, individual mice, 7 mg/kg, read-out: Cmax); 2490 ng/mL and 2040 ng/mL in data set [2] (setting [5]); 5.38 µM and 4.41 µM in data set [2] (1 mg/kg IV, individual mice, 1 mg/kg, read-out: Cmax). Besides, the highest concentration (Cmax) in data set [2] (male, C57 Bl/6J, mouse, plasma, iv, 1 mg/kg, 1 mg/kg IV, Average, read-out: Cmax) is 2030 ng/mL and 4.38 µM; in data set [2] (male, C57 Bl/6J, mouse, plasma, iv, 1 mg/kg, 1 mg/kg IV, individual mice, read-out: Cmax), 1560 ng/mL and 3.37 µM. The half-life in data set [1] (male, C57 Bl/6J, mouse, plasma, po, 7 mg/kg, mouse plasma, 7 mg/kg PO, Average, read-out: T1/2 (converted)) is 1.9 h; in data set [1] (male, C57 Bl/6J, mouse, plasma, po, 7 mg/kg, mouse plasma, 7 mg/kg PO, individual mice (Mouse-1 to Mouse-3), read-out: T1/2 (converted)) it was 1.65 h; in data set [1] (male, C57 Bl/6J, mouse, plasma, po, 7 mg/kg, mouse plasma, oral dosing, read-out: half-life (converted)), 1.9 h; in data set [2] (male, C57 Bl/6J, mouse, plasma, iv, 1 mg/kg, 1 mg/kg IV, Average, read-out: T1/2 (converted)), 1.16 h; in data set [2] (male, C57 Bl/6J, mouse, plasma, iv, 1 mg/kg, 1 mg/kg IV, individual mice (Mouse-1 to Mouse-3), read-out: T1/2 (converted)), 0.86 h; in data set [2] (male, C57 Bl/6J, mouse, plasma, iv, 1 mg/kg, IV administration, read-out: half-life (T1/2) (converted)), 1.2 h. The bioavailability amounted to 31% in data set [1] (male, C57 Bl/6J, plasma, 7 mg/kg, mouse, oral dosing, read-out: bioavailability (% F)) and 31% in data set [1] (male, C57 Bl/6J, plasma, mouse, 7 mg/kg PO vs 1 mg/kg IV, Average, read-out: % F). In addition, the time of peak concentration (Tmax) in data set [1] (male, C57 Bl/6J, mouse plasma, 7 mg/kg PO, individual mice) came to 1 h; in data set [2] (male, C57 Bl/6J, 1 mg/kg IV, individual mice), 4.8 min. In addition, the “AUC (% Extrap)” value is 6.54% in data set [1] (setting [3]); 5.20% and 9.47% and 4.97% in data set [1] (setting [4]); 1.08% in data set [2] (1 mg/kg IV, Average); 0.30% and 1.04% and 1.89% in data set [2] (setting [5]). Also, the Cl_obs in data set [1] (setting [3]) was 16.34 mL/min/kg; in data set [1] (setting [4]), 10.13 mL/min/kg and 20.88 mL/min/kg and 18.01 mL/min/kg; in data set [2] (1 mg/kg IV, Average) it was 4.93 mL/min/kg; in data set [2] (setting [5]), 4.70 mL/min/kg and 5.63 mL/min/kg and 4.46 mL/min/kg. For the same compound, the T1/2 in data set [1] (mouse plasma, 7 mg/kg PO, individual mice (Mouse-1 to Mouse-3), 7 mg/kg) was 2.25 h and 1.78 h; in data set [2] (1 mg/kg IV, individual mice (Mouse-1 to Mouse-3), 1 mg/kg) it was 1.33 h and 1.28 h. Further, the AUCINF_obs in data set [1] (setting [4]) was 690882 ng·min/mL and 335315 ng·min/mL and 388640 ng·min/mL; in data set [2] (setting [5]), 177722 ng·min/mL and 224191 ng·min/mL. In addition, the AUClast is 654948 min*ng/mL and 303573 min*ng/mL and 369340 min*ng/mL and 23.58 μM.hr and 10.93 μM.hr and 13.30 μM.hr in data set [1] (setting [4]); 175879 ng·min/mL and 219951 ng·min/mL in data set [2] (setting [5]). The Vss_obs in data set [2] (1 mg/kg IV, Average) is 0.54 L/kg; in data set [2] (setting [5]), 0.50 L/kg and 0.59 L/kg and 0.53 L/kg. In data set [2] (setting [5]), the AUC last was 6.33 µM·h and 7.92 µM·h. Moreover, the MRTINF_obs in data set [2] (setting [5]) is 1.74 h and 1.97 h. For the same compound, the “clearance (in words)” value in data set [2] (IV administration) was “low clearance”. For the same compound, in data set [2] (IV administration), the “volume (in words)” value is “low volume”. In addition, the MRT inf in data set [2] (setting [6]) is 1.82 h; in data set [2] (setting [7]), 1.76 h.

As to `CN(C)C(=O)N1CCC2(CC1)c1ccccc1C(=O)N2Cc1ccc(C(=O)NO)cc1` [Compound Example 11, 2-(4-(hydroxycarbamoyl)benzyl)-N,N-dimethyl-3-oxospiro[isoindoline-1,4′-piperidine]-1′-carboxamide], the 50% inhibitory concentration (IC50) at Human HDAC5 was 1.55 µM; against Human HDAC10, over 10 µM.

(Values after patent US11155550B2, “Histone deacetylase inhibitors and methods of use thereof” (Reaction Biology Corp., priority 2018, dated 2021).)
